System: D. melanogaster nAChRs
Assay: Comparison of agonist activity between nAChRs expressed in X. laevis oocytes (one-way ANOVA, Kruskal-Wallis)
Assay type: cell-based
Description: We minimised the use of X. laevis according to the UK Animals (Scientific Procedures) Act, 1986. […] Oocytes were defolliculated after collagenase treatment in Ca^2+-free standard oocyte saline (Ca^2+-free SOS). cRNAs of the nAChR subunits and co-factors mixed at a concentration of 0.1 mg/mL was injected into oocytes at a volume of 50 nL. Then the oocytes were incubated in the incubation medium (SOS supplemented with sodium pyruvate (Nacalai Tesque, #13058–12), penicillin-streptomycin (MilliporeSigma, #P4333), gentamycin (Nacalai Tesque, #16672–04), and 4% horse serum (Thermo Fisher Scientific, #26050–070) for 3−4 days prior to electrophysiology.
Each defolliculated X. laevis oocyte was secured in a Perspex recording chamber and perfused with the standard oocyte saline (SOS) containing 0.5 μM atropine (SOSA) at a flow rate of 7−10 mL/min [48]. Two glass electrodes filled with 2 M KCl were impaled into each oocyte and the membrane potential was clamped at -100 mV. […] The peak amplitude of the response was measured and analysed by pCLAMP (Molecular Devices, USA).
Y=Imax/1+10^(logEC50‐X)nH
Where Y is the normalised response, X is log[ligand (M)], EC50 is the half maximal concentration (M), Imax is the maximum normalised response and nH is the Hill coefficient.
Prism software was employed for the statistical analyses. […] One-way ANOVA was used to analyse the differences of the ligand agonist activity in terms of pEC50 on the various nAChRs expressed in X. laevis as well as data obtained with D. melanogaster larvae and adults.

[1] = Dα1/Dα2/Dα3/Dβ1/Dβ2 vs. Dα1/Dα2/Dβ1/Dβ2/Dβ3
[2] = Dα1/Dα2/Dα3/Dβ1/Dβ2 vs. Dα1/Dα3/Dα4/Dβ1/Dβ2
[3] = Dα1/Dα2/Dα3/Dβ1/Dβ2 vs. Dα1/Dα3/Dβ1/Dβ2/Dβ3
[4] = Dα1/Dα2/Dα3/Dβ1/Dβ2 vs. Dα2/Dα3/Dα4/Dβ1/Dβ2
[5] = Dα1/Dα2/Dα3/Dβ1/Dβ2 vs. Dα2/Dα3/Dβ1/Dβ2/Dβ3
[6] = Dα1/Dα2/Dα3/Dβ1 vs. Dα1/Dα2/Dα3/Dβ1/Dβ2
[7] = Dα1/Dα2/Dα3/Dβ1 vs. Dα1/Dα2/Dβ1/Dβ2
[8] = Dα1/Dα2/Dα3/Dβ1 vs. Dα1/Dα3/Dβ1/Dβ2
[9] = Dα1/Dα2/Dα3/Dβ1 vs. Dα1/Dβ1/Dβ2
[10] = Dα1/Dα2/Dα3/Dβ1 vs. Dα2/Dα3/Dβ1/Dβ2
[11] = Dα1/Dα2/Dα3/Dβ1 vs. Dα3/Dβ1/Dβ2
[12] = Dα1/Dα2/Dβ1/Dβ2 vs. Dα1/Dα2/Dα3/Dβ1/Dβ2
[13] = Dα1/Dα2/Dβ1/Dβ2 vs. Dα2/Dα3/Dβ1/Dβ2
[14] = Dα1/Dα2/Dβ1 vs. Dα1/Dα2/Dα3/Dβ1
[15] = Dα1/Dα2/Dβ1 vs. Dα1/Dα2/Dα3/Dβ1/Dβ2
[16] = Dα1/Dα2/Dβ1 vs. Dα1/Dα2/Dβ1/Dβ2
[17] = Dα1/Dα2/Dβ1 vs. Dα1/Dα3/Dβ1/Dβ2
[18] = Dα1/Dα2/Dβ1 vs. Dα2/Dα3/Dβ1/Dβ2
[19] = Dα1/Dα3/Dβ1/Dβ2 vs. Dα1/Dα2/Dα3/Dβ1/Dβ2
[20] = Dα1/Dα3/Dβ1/Dβ2 vs. Dα1/Dα2/Dβ1/Dβ2
[21] = Dα1/Dα3/Dβ1/Dβ2 vs. Dα2/Dα3/Dβ1/Dβ2
[22] = Dα1/Dα3/Dβ1 vs. Dα1/Dα2/Dα3/Dβ1
[23] = Dα1/Dα3/Dβ1 vs. Dα1/Dα2/Dα3/Dβ1/Dβ2
[24] = Dα1/Dα3/Dβ1 vs. Dα1/Dα2/Dβ1/Dβ2
[25] = Dα1/Dα3/Dβ1 vs. Dα1/Dα3/Dβ1/Dβ2
[26] = Dα1/Dα3/Dβ1 vs. Dα2/Dα3/Dβ1/Dβ2
[27] = Dα1/Dβ1/Dβ2 vs. Dα1/Dα2/Dα3/Dβ1/Dβ2
[28] = Dα1/Dβ1/Dβ2 vs. Dα1/Dα2/Dβ1/Dβ2

O=[N+]([O-])NC1=NCCN1Cc1ccc(Cl)nc1 [Imidacloprid, imidacloprid]
Difference of Imax values, nAChRs compared (Dα1/Dα2/Dα3/Dβ1/Dβ2 vs. Dα1/Dα2/Dα4/Dβ1/Dβ2): -0.030
Difference of Imax values, nAChRs compared [1]: 0.062
Difference of pEC50 values, nAChRs compared [1]: 0.21
Difference of Imax values, nAChRs compared [2]: 0.041
Difference of pEC50 values, nAChRs compared [2]: -0.83
Difference of Imax values, nAChRs compared [3]: 0.002
Difference of pEC50 values, nAChRs compared [3]: -1.25
Difference of Imax values, nAChRs compared [4]: 0.115
Difference of pEC50 values, nAChRs compared [4]: -0.93
Difference of Imax values, nAChRs compared [5]: 0.121
Difference of pEC50 values, nAChRs compared [5]: -1.28
Difference of Imax values [6]: -0.048
Difference of pEC50 values [6]: 0.61
Difference of Imax values [7]: -0.071
Difference of pEC50 values [7]: 0.63
Difference of Imax values [8]: -0.236
Difference of pEC50 values [8]: -0.44
Difference of Imax values [9]: 0.018
Difference of pEC50 values [9]: 0.09
Difference of Imax values [10]: -0.031
Difference of pEC50 values [10]: 0.08
Difference of Imax values [11]: 0.055
Difference of pEC50 values [11]: -1.20
Difference of Imax values [12]: 0.023
Difference of pEC50 values [12]: -0.02
Difference of Imax values [13]: 0.040
Difference of pEC50 values [13]: -0.55
Difference of Imax values [14]: -0.063
Difference of pEC50 values [14]: -0.37
Difference of Imax values [15]: -0.111
Difference of pEC50 values [15]: 0.24
Difference of Imax values [16]: -0.134
Difference of pEC50 values [16]: 0.26
Difference of Imax values [17]: -0.299
Difference of pEC50 values [17]: -0.81
Difference of Imax values (Dα1/Dα2/Dβ1 vs. Dα1/Dβ1/Dβ2): -0.045
Difference of pEC50 values (Dα1/Dα2/Dβ1 vs. Dα1/Dβ1/Dβ2): -0.28
Difference of Imax values (Dα1/Dα2/Dβ1 vs. Dα2/Dα3/Dβ1): -0.070
Difference of pEC50 values (Dα1/Dα2/Dβ1 vs. Dα2/Dα3/Dβ1): -0.17
Difference of Imax values [18]: -0.094
Difference of pEC50 values [18]: -0.29
Difference of Imax values (Dα1/Dα2/Dβ1 vs. Dα3/Dβ1/Dβ2): -0.008
Difference of pEC50 values (Dα1/Dα2/Dβ1 vs. Dα3/Dβ1/Dβ2): -1.57
Difference of Imax values [19]: 0.188
Difference of pEC50 values [19]: 1.05
Difference of Imax values [20]: 0.165
Difference of pEC50 values [20]: 1.07
Difference of Imax values [21]: 0.205
Difference of pEC50 values [21]: 0.52
Difference of Imax values [22]: 0.076
Difference of pEC50 values [22]: 0.50
Difference of Imax values [23]: 0.028
Difference of pEC50 values [23]: 1.11
Difference of Imax values (Dα1/Dα3/Dβ1 vs. Dα1/Dα2/Dβ1): 0.139
Difference of pEC50 values (Dα1/Dα3/Dβ1 vs. Dα1/Dα2/Dβ1): 0.87
Difference of Imax values [24]: 0.005
Difference of pEC50 values [24]: 1.13
Difference of Imax values [25]: -0.160
Difference of pEC50 values [25]: 0.06
Difference of Imax values (Dα1/Dα3/Dβ1 vs. Dα1/Dβ1/Dβ2): 0.094
Difference of pEC50 values (Dα1/Dα3/Dβ1 vs. Dα1/Dβ1/Dβ2): 0.59
Difference of Imax values (Dα1/Dα3/Dβ1 vs. Dα2/Dα3/Dβ1): 0.069
Difference of pEC50 values (Dα1/Dα3/Dβ1 vs. Dα2/Dα3/Dβ1): 0.70
Difference of Imax values [26]: 0.045
Difference of pEC50 values [26]: 0.58
Difference of Imax values (Dα1/Dα3/Dβ1 vs. Dα3/Dβ1/Dβ2): 0.131
Difference of pEC50 values (Dα1/Dα3/Dβ1 vs. Dα3/Dβ1/Dβ2): -0.70
Difference of Imax values [27]: -0.066
Difference of pEC50 values [27]: 0.52
Difference of Imax values [28]: -0.089
Difference of pEC50 values [28]: 0.54
